From the NIST ThermoML archive (doi:10.1021/je400178k)

Assay: molar heat capacity at constant pressure; xn = mol fraction of the nth substance listed
Conditions: 101 kPa, Liquid, Small sample (50 mg) DSC

OCCN1CCNCC1 [N-(2-hydroxyethyl)piperazine] + O
molar heat capacity at constant pressure [J/K/mol]
Conditions	x1 = 0.0999	x1 = 0.2	x1 = 0.2921	x1 = 0.3916	x1 = 0.4896	x1 = 0.6011	x1 = 0.6947	x1 = 0.7952	x1 = 0.8939	x1 = 1
298.15 K	104.2	126.9	145.8	165.4	184.7	206.4	224.8	244.6	264.2	285
303.15 K	105.7	129.2	149.2	169.1	188.3	210.1	228.7	248.9	268.8	289.9
308.15 K	107.1	131.5	151.9	171.5	191	212.7	231.4	251.8	271.6	292.9
313.15 K	108.6	133.9	154.8	174.4	194.1	215.8	234.5	254.5	274.4	296
318.15 K	110.4	136.1	157.5	177.5	196.8	218.2	237.1	257.2	277.2	298.9
323.15 K	112.2	139	160.7	179.9	199.4	220.7	239.6	259.8	279.8	301.7
328.15 K	114.3	142.3	164.2	182.4	202	223.7	242.6	262.7	282.8	305
333.15 K	115.7	144.9	167.3	185.7	204.7	226.3	245.3	265.5	285.7	308.1
338.15 K	118.5	148	170.6	188.1	207.5	229.1	248.2	268.2	288.4	311
343.15 K	120.8	150.6	173.3	190.9	210.1	232	250.8	270.8	291.1	313.9
348.15 K	122.5	153	175.6	194	212.8	234.8	253.5	273.3	293.6	316.5
353.15 K	124	155.5	177.9	197.6	215.5	237.5	256.1	275.8	296.1	319

NCCCN1CCOCC1 [N-(3-aminopropyl)morpholine] + O
molar heat capacity at constant pressure [J/K/mol]
Conditions	x1 = 0.0999	x1 = 0.2	x1 = 0.2921	x1 = 0.3916	x1 = 0.4896	x1 = 0.6011	x1 = 0.6947	x1 = 0.7952	x1 = 0.8939	x1 = 1
298.15 K	108.4	136.2	160.1	183.1	203.5	224.3	242.5	261.6	278.9	296.2
303.15 K	109.3	137.2	161.5	184.9	205.1	226.3	244.5	263.6	281	298.2
308.15 K	110.3	138.2	162.6	186.4	206.8	227.8	246.1	265.1	282.5	299.6
313.15 K	111.3	139.5	164	188.1	208.5	229.5	247.7	266.7	284	301.2
318.15 K	112.3	140.9	165.6	189.9	210.3	231.2	249.4	268.4	285.8	302.8
323.15 K	113.1	142.3	167.2	191.3	211.7	232.9	251.1	270.1	287.5	304.5
328.15 K	114	143.7	168.6	192.9	213.2	234.4	252.6	271.6	289.1	306.1
333.15 K	114.9	145.3	170.3	194.5	214.8	236	254.3	273.4	290.9	307.9
338.15 K	115.9	146.8	171.9	196.2	216.5	237.7	256	275	292.5	309.6
343.15 K	116.8	148.2	173.8	197.6	218.1	239.5	257.6	276.5	294.2	311.3
348.15 K	117.8	149.7	175.5	199.3	219.7	240.9	259.1	277.9	295.6	312.7
353.15 K	118.9	151.1	177.2	201.6	221.1	242.1	260.2	278.7	296.3	313.4
